Source: US20110065597A1, “SINGLE MOLECULE PROTEOMICS WITH DYNAMIC PROBES” (LI-COR, INC., priority 2009, published 2011)

What was measured:
[1] = target: neutravidin (Gallus gallus, UniProt P02701); conditions: at each individual immobilized biotin molecule, picomolar neutravidin in solution; cited from earlier work
[2] = Photostability of dye-labeled secondary antibody in fixed NIH3T3 cells (fluorescence intensity vs exposure number); assay type: physicochemical; conditions: FIG. 3B, compared with IRDye 680 and Alexa Fluor 680
Experimental: LI-COR IRDye 700DX is shown in FIG. 3A which has multiple charged groups. NIH3T3 cells were fixed and permeabilized, followed by incubation with rabbit anti-histone primary antibody and goat anti-rabbit secondary antibody labeled with IRDye 680, IRDye 700DX, or Alexa Fluor 680. Images were recorded in movies of 2-second exposures by a Roper Micromax CCD in a Zeiss Axiovert S100 microscope. The mean fluorescence intensity of the field is plotted against exposure number (FIG. 3B).

neutravidin, sequence (P02701 25-152): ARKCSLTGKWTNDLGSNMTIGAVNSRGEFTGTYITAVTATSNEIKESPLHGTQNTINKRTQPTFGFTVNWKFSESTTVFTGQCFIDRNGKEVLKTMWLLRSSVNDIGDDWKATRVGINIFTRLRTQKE

## O=C(O)CCCC[C@@H]1SC[C@@H]2NC(=O)N[C@@H]21 [biotin]
[1]
  diffusion-limited binding rate: 1.9e+08 M⁻¹ s⁻¹

## C[Si](C)(CCC[N+](CCCS(=O)(=O)[O-])(CCCS(=O)(=O)[O-])CCCS(=O)(=O)[O-])O[Si]1(O[Si](C)(C)CCC[N+](CCCS(=O)(=O)[O-])(CCCS(=O)(=O)[O-])CCCS(=O)(=O)[O-])n2c3c4ccccc4c2N=C2N=C(N=c4c5ccccc5c(n41)=NC1=NC(=N3)c3ccccc31)c1cccc(OCCCOC(=O)NCCCCCC(=O)ON3C(=O)CCC3=O)c12.[Na+].[Na+].[Na+].[Na+] (centres unmarked) [IRDye, 700DX]
[2]
  photostability: superior
